From PubChem BioAssay AID749 (The Scripps Research Institute Molecular Screening Center, 2007)
Calls of active or inactive are those of the source.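 How the source made its calls: active means IC50 at or below 10 micromolar; inactive means IC50 above 10 micromolar.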

What follows are molecules tested against 5-hydroxytryptamine receptor 1E (Homo sapiens) (UniProt P28566) (assay: 5-HT1E receptor antagonist potency, dose response, cell-based (AID 749)). Conditions: CHO 5-HT1E Ga15 NFAT-BLA reporter, FRET.
5-hydroxytryptamine receptor 1E (Homo sapiens), sequence (P28566 whole entry, looked up): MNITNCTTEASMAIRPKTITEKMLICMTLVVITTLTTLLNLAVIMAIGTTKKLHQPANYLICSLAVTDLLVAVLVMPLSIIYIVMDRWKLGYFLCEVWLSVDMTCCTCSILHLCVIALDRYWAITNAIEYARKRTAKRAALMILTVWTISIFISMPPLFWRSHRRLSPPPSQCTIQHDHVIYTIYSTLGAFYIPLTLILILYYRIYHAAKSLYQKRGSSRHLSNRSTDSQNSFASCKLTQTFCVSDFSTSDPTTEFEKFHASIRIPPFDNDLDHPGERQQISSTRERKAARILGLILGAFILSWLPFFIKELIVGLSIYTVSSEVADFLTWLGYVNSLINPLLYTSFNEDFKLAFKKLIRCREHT

SMILES | IC50
COc1ccc(C2N(c3ccc(F)cc3)C(=O)C3CCCN32)cc1 (configuration not stated) | > 38.2 µM (inactive)
CCN(CC)c1ccc2c(Cl)c(Br)c(=O)oc2c1 | 0.999 µM
COc1cc2c(cc1OC)-c1cc(N3CCCc4ccccc43)nc(=O)n1CC2 | > 50 µM (inactive)
CC(=O)Oc1ccc(N2C(=O)C3C(C2=O)C2(C)C=CC3(C)O2)cc1 (configuration not stated) | 2.62 µM
N#C/C(=C/c1ccc(N2CCCCCC2)o1)c1ccc(F)cc1 | 5.2 µM
CCOc1cccc(-c2nnc3n2N=C(c2cc(OC)ccc2OC)CS3)c1 | > 32.7 µM (inactive)
O=S1(=O)C=C(Sc2nnc(-c3ccccc3)o2)c2ccccc21 | 1.04 µM
O=C1C2C3C=CC(CO)(O3)C2C(=O)N1c1ccc(-c2ccccc2)cc1 (configuration not stated) | 4.91 µM
CCC(NC(=O)Nc1nnc(C(F)(F)F)s1)(C(F)(F)F)C(F)(F)F | inactive
CSc1ccccc1N=CC1=C(O)CC(C)(C)CC1=O | 2.35 µM
COCCOC(=O)c1[nH]c2c(c1C)C(=O)CC(c1ccccc1)C2 (configuration not stated) | > 50 µM (inactive)
COc1cc2c(cc1OC)C1=C(C#N)CC/C(=N\S(=O)(=O)c3ccccc3)N1CC2 | > 50 µM (inactive)
CC(C)=CCC(C)(C)CNC(=O)NC1CCCCC1 | > 50 µM (inactive)
O=C(Nc1ccc(-c2nc3ncccc3o2)cc1)c1ccc(Br)o1 | > 50 µM (inactive)
COc1cc(NS(=O)(=O)c2ccc(C)cc2)c2ncccc2c1 | 3.75 µM
COc1cccc(N2CCN(c3ncnc4c3[nH]c3ccc(F)cc34)CC2C)c1 (configuration not stated) | 1.82 µM
N#CCCS(=O)(=O)c1nnnn1-c1ccccc1 | 2.79 µM
CCn1nc(-c2cccs2)nc2c(=O)n(C)c(=O)nc1-2 | 0.629 µM
CN(C)c1nc(OCCNC(=O)COc2ccc(Cl)cc2Cl)nc(N2CCCCC2)n1 | > 50 µM (inactive)
CC(=O)Nc1cc(OC(C)=O)c2nonc2c1OC(C)=O | 2.1 µM
Cc1ccc(-n2nc3c([n+]2[O-])CCc2c-3no[n+]2[O-])cc1 | 3.9 µM

SMILES | IC50
CCCOCCOC(=O)c1[nH]c2c(c1C)C(=O)CC(c1cc(OC)ccc1OC)C2 (configuration not stated) | > 50 µM (inactive)
COc1cccc(N2CCN(c3ncnc4c3cnn4-c3ccc(C)cc3C)CC2)c1 | 6.99 µM
CCOc1ccc(C2=Nn3c(nnc3-c3ccccc3OC)SC2)cc1 | > 50 µM (inactive)
CS(=O)(=O)c1nc(-c2ccco2)cc(C(F)(F)F)n1 | 2.26 µM
CCn1c(=O)c(C(=O)Nc2nc3ccccc3[nH]2)c(O)c2ccccc21 | inactive
Cc1ccc(S(=O)(=O)Nc2cccc3ncccc23)s1 | 2.91 µM
COc1ccccc1-c1nnc2n1N=C(c1ccc(O)c(O)c1)CS2 | > 50 µM (inactive)
COc1ccc(-n2nnnc2S(=O)(=O)CC(=O)N2CCCCC2)cc1 | 2.61 µM
O=C(Nc1ccc(N2CCOCC2)cc1)Nc1ccc2nc(-c3ccco3)c(-c3ccco3)nc2c1 | > 17.2 µM (inactive)
CS(=O)(=O)c1nc(-c2ccccc2)cc(C(F)(F)F)n1 | 2.13 µM
COc1ccc(N2C(=O)CC(NCc3ccncc3)C2=O)cc1 (configuration not stated) | > 50 µM (inactive)
COc1ccc(-c2cc(C(F)(F)F)nc(S(C)(=O)=O)n2)cc1OC | 2.91 µM
CCCc1nnc2n1N=C(c1ccc(OC)c(OC)c1)CS2 | > 50 µM (inactive)
Clc1ccc(-n2nnnc2Sc2ncnc3sccc23)cc1 | 3.5 µM
CS(=O)(=O)c1nc(-c2cccs2)cc(C(F)(F)F)n1 | 1.93 µM
CCCOc1ccc2nc(NC(=O)OC)[nH]c2c1 | > 50 µM (inactive)
COc1cccc(N2CCN(c3ncnc4c3[nH]c3ccccc34)CC2C)c1 (configuration not stated) | 8.24 µM
CCn1nc(-c2ccccc2)nc2c(=O)n(C)c(=O)nc1-2 | > 50 µM (inactive)
Cn1c(-c2c(N)n(C3CCCC3)c3nc4ccccc4nc23)nc2ccccc21 | 3.64 µM
COC(=O)/C(=C1/Oc2cc(C)oc(=O)c2S1)C(F)(F)F | 1.86 µM
COC(=O)Nc1nc2ccc(Sc3ccccc3)cc2[nH]1 | > 50 µM (inactive)
